Test results taken from patent publication US12453709B2, “Compositions and methods for treating autism” (priority 2013, dated 2025).
Marks after values point to notes of the source that are not given here.

Tested on: male patients diagnosed with autism
Test: Study HT 02-121: adverse events
Type: in vivo, human
Method: The purpose of this clinical study (referred to herein as “Study HT 02-121”; i.e., Example 6) was to determine whether L1-79 was a well-tolerated and clinically useful agent for the treatment of ASD, and to assess the PK and pharmacodynamics (PD) of four weeks of TID dosing with L1-79. […] The first cohort of 20 patients was comprised of three groups of patients: The first group of five patients received open-label L1-79 100 mg TID and underwent PK and EKG assessments. […] The PK and safety data from the open-label L1-79 100 mg TID group was submitted to FDA for review and acceptance before the second cohort was enrolled. The second cohort was procedurally identical to the first. The second cohort of 20 patients was comprised of the same three groups of patients but a dose of 200 mg TID was used instead of 100 mg TID. The key inclusion criteria were as follows: […] Safety was the primary endpoint of the study. The following safety endpoints were assessed: ECGs, physical exams, laboratory evaluations (hematology, chemistry and urinalysis), vital signs, including orthostatic blood pressure, adverse events (AEs) and concomitant medications. The incidence of AEs by primary system organ class and preferred term is presented in Table 7, and a listing of the AEs reported during the study is presented in Table 8. All AEs were mild to moderate in intensity and self-limited.

[1] = patient 01-011, OL 200 mg TID, treatment emergent Y, resolved
[2] = patient 02-001, OL 100 mg TID, treatment emergent Y, resolved
[3] = patient 02-018, DB 200 mg TID, treatment emergent Y, resolved

CC(N)(Cc1ccc(O)cc1)C(=O)O (racemic) [L1-79, α-methyl-DL-tyrosine]
Incidence of AEs: Nasopharyngitis (OL 100 mg TID, N = 5): 0[0] n(%)
Incidence of AEs: Nervous system disorders (OL 100 mg TID, N = 5): 0[0] n(%)
Incidence of AEs: Otitis externa (OL 100 mg TID, N = 5): 0[0] n(%)
Incidence of AEs: Psychiatric disorders (OL 100 mg TID, N = 5): 2(40.0) n(%)
Incidence of AEs: Pyrexia (OL 100 mg TID, N = 5): 0[0] n(%)
Incidence of AEs: Renal and urinary disorders (OL 100 mg TID, N = 5): 0[0] n(%)
Incidence of AEs: Respiratory, thoracic & mediastinal disorders (OL 100 mg TID, N = 5): 0[0] n(%)
Incidence of AEs: Seasonal allergy (OL 100 mg TID, N = 5): 0[0] n(%)
Incidence of AEs: Syncope (OL 100 mg TID, N = 5): 0[0] n(%)
Incidence of AEs: Urinary incontinence (OL 100 mg TID, N = 5): 0[0] n(%)
Number of AE events: All primary SOC (OL 100 mg TID, N = 5): 6 [e]
Number of AE events: Anxiety (OL 100 mg TID, N = 5): 1 [e]
Number of AE events: Confusional state (OL 100 mg TID, N = 5): 1 [e]
Number of AE events: International self-injury (OL 100 mg TID, N = 5): 2 [e]
Number of AE events: Irritability (OL 100 mg TID, N = 5): 2 [e]
Number of AE events: Psychiatric disorders (OL 100 mg TID, N = 5): 6 [e]
Incidence of AEs: Agitation (OL 200 mg TID, N = 6): 0[0] n(%)
Incidence of AEs: All primary SOC (OL 200 mg TID, N = 6): 2(40.0) n(%)
Incidence of AEs: Amylase † (OL 200 mg TID, N = 6): 0[0] n(%)
Incidence of AEs: Anxiety (OL 200 mg TID, N = 6): 0[0] n(%)
Incidence of AEs: Blood TSH † (OL 200 mg TID, N = 6): 0[0] n(%)
Incidence of AEs: Confusional state (OL 200 mg TID, N = 6): 0[0] n(%)
Incidence of AEs: Cough (OL 200 mg TID, N = 6): 1(20.0) n(%)
Incidence of AEs: Crystal urine present (OL 200 mg TID, N = 6): 0[0] n(%)
Incidence of AEs: Diarrhoea (OL 200 mg TID, N = 6): 0[0] n(%)
Incidence of AEs: Ear infection (OL 200 mg TID, N = 6): 0[0] n(%)
Incidence of AEs: Fatigue (OL 200 mg TID, N = 6): 1(20.0) n(%)
Incidence of AEs: GI disorders (OL 200 mg TID, N = 6): 0[0] n(%)
Incidence of AEs: General disorders & administration site conditions (OL 200 mg TID, N = 6): 2(40.0) n(%)
Incidence of AEs: Generalized tonic-clonic seizure (OL 200 mg TID, N = 6): 0[0] n(%)
Incidence of AEs: Immune system disorders (OL 200 mg TID, N = 6): 1(20.0) n(%)
Incidence of AEs: Infections and infestations (OL 200 mg TID, N = 6): 0[0] n(%)
Incidence of AEs: International self-injury (OL 200 mg TID, N = 6): 0[0] n(%)
Incidence of AEs: Investigations (OL 200 mg TID, N = 6): 0[0] n(%)
Incidence of AEs: Irritability (OL 200 mg TID, N = 6): 0[0] n(%)
Incidence of AEs: Nasopharyngitis (OL 200 mg TID, N = 6): 0[0] n(%)
Incidence of AEs: Nervous system disorders (OL 200 mg TID, N = 6): 0[0] n(%)
Incidence of AEs: Otitis externa (OL 200 mg TID, N = 6): 0[0] n(%)
Incidence of AEs: Psychiatric disorders (OL 200 mg TID, N = 6): 0[0] n(%)
Incidence of AEs: Pyrexia (OL 200 mg TID, N = 6): 1(20.0) n(%)
Incidence of AEs: Renal and urinary disorders (OL 200 mg TID, N = 6): 0[0] n(%)
Incidence of AEs: Respiratory, thoracic & mediastinal disorders (OL 200 mg TID, N = 6): 1(20.0) n(%)
Incidence of AEs: Seasonal allergy (OL 200 mg TID, N = 6): 1(20.0) n(%)
Incidence of AEs: Syncope (OL 200 mg TID, N = 6): 0[0] n(%)
Incidence of AEs: Urinary incontinence (OL 200 mg TID, N = 6): 0[0] n(%)
Number of AE events: All primary SOC (OL 200 mg TID, N = 6): 4 [e]
Number of AE events: Cough (OL 200 mg TID, N = 6): 1 [e]
Number of AE events: Fatigue (OL 200 mg TID, N = 6): 1 [e]
Number of AE events: General disorders & administration site conditions (OL 200 mg TID, N = 6): 2 [e]
Number of AE events: Immune system disorders (OL 200 mg TID, N = 6): 1 [e]
Number of AE events: Pyrexia (OL 200 mg TID, N = 6): 1 [e]
Number of AE events: Respiratory, thoracic & mediastinal disorders (OL 200 mg TID, N = 6): 1 [e]
Number of AE events: Seasonal allergy (OL 200 mg TID, N = 6): 1 [e]
AE Relationship: cough (patient 01-011, OL 200 mg TID): not related
AE Relationship: pyrexia (fever) (patient 01-011, OL 200 mg TID): not related
AE Severity: cough [1]: moderate
AE Severity: pyrexia (fever) [1]: moderate
AE Relationship: crystal urine present (urine cystine crystal present) (patient 01-014, DB 200 mg TID): not related
AE Severity: crystal urine present (urine cystine crystal present) (patient 01-014, DB 200 mg TID, reported at 4-week follow-up visit, resolved): mild
AE Relationship: diarrhoea (diarrhea) (patient 01-016, DB 200 mg TID): not related
AE Severity: diarrhoea (diarrhea) (patient 01-016, DB 200 mg TID, treatment emergent Y, resolved): moderate
AE Relationship: fatigue (tiredness) (patient 01-016, OL 200 mg TID): possibly related
AE Relationship: seasonal allergy (patient 01-016, OL 200 mg TID): not related
AE Severity: seasonal allergy (patient 01-016, OL 200 mg TID, treatment emergent Y, not resolved): moderate
AE Severity: fatigue (tiredness) (patient 01-016, OL 200 mg TID, treatment emergent Y, resolved): mild
AE Relationship: crystal urine present (urine cystine crystal present) (patient 01-018, DB 200 mg TID): not related
AE Severity: crystal urine present (urine cystine crystal present) (patient 01-018, DB 200 mg TID, reported at 4-week follow-up visit, resolved): mild
AE Relationship: anxiety (anxious) (patient 02-001, OL 100 mg TID): possibly related
AE Relationship: confusional state (mental confusion) (patient 02-001, OL 100 mg TID): possibly related
AE Relationship: intentional self-injury (self injurious behavior) (patient 02-001, OL 100 mg TID): possibly related
AE Relationship: irritability (patient 02-001, OL 100 mg TID): possibly related
AE Severity: anxiety (anxious) [2]: mild
AE Severity: confusional state (mental confusion) [2]: mild
AE Severity: intentional self-injury (self injurious behavior) [2]: mild
AE Severity: irritability [2]: mild
AE Relationship: intentional self-injury (violent episodes of self injurious behavior) (patient 02-002, OL 100 mg TID): probably related
AE Relationship: irritability (patient 02-002, OL 100 mg TID): probably related
AE Severity: irritability (patient 02-002, OL 100 mg TID, treatment emergent Y, outcome unknown): mild
AE Severity: intentional self-injury (violent episodes of self injurious behavior) (patient 02-002, OL 100 mg TID, treatment emergent Y, resolving): mild
AE Relationship: synoope (synoope) (patient 02-009, DB 100 mg TID): not related
AE Severity: synoope (synoope) (patient 02-009, DB 100 mg TID, treatment emergent Y, resolved): mild
AE Relationship: anxiety (anxious mood) (patient 02-018, DB 200 mg TID): possibly related
AE Relationship: blood thyroid stimulating hormone increased (elevated TSH) (patient 02-018, DB 200 mg TID): possibly related
AE Relationship: diarrhoea (diarrhea) (patient 02-018, DB 200 mg TID): possibly related
AE Relationship: otitis externa (patient 02-018, DB 200 mg TID): not related
AE Severity: blood thyroid stimulating hormone increased (elevated TSH) (patient 02-018, DB 200 mg TID, reported at 4-week follow-up visit, resolved): moderate
AE Severity: anxiety (anxious mood) [3]: mild
AE Severity: diarrhoea (diarrhea) [3]: moderate
AE Severity: otitis externa [3]: mild
AE Relationship: generalized tonic-clonic seizer (grand mal seizure) (patient 02-023, DB 200 mg TID): possibly related
AE Severity: generalized tonic-clonic seizer (grand mal seizure) (patient 02-023, DB 200 mg TID, treatment emergent Y, resolved, discontinued Y): moderate
AE Relationship: diarrhoea (diarrhea) (patient 02-024, DB 200 mg TID): not related
AE Relationship: ear infection (patient 02-024, DB 200 mg TID, AE reported pre-treatment): not related
AE Severity: ear infection (patient 02-024, DB 200 mg TID, AE reported pre-treatment, resolving): mild
AE Severity: diarrhoea (diarrhea) (patient 02-024, DB 200 mg TID, treatment emergent Y, resolved): mild
